Results reported in patent US8722674B2, “1,3,5-triazine-2,4,6-triamine compound or pharmaceutical acceptable salt thereof, and pharmaceutical composition comprising the same” (Hanall Biopharma Co., Ltd., priority 2007, dated 2014).
Counter-ions that a name gives are not always drawn. Values belong to the compound of their own block, whether it stands above or below them.

Legend:
[1] = system: C2C12 cells; experiment: Measurement of glucose absorption (3H-deoxy-glucose); assay type: cell-based
Excerpt: (§1) Metformin that is widely used in type 2 diabetic patients inhibits the formation of glucose, the synthesis of cholesterol and triglyceride in liver cells and promote the absorption of glucose from blood vessels in the muscle cells. […] In the case of the ability to form cholesterol, triglyceride and glucose, the lower the numerical value, the better the effect. Numerical values for a control group become reference values.
As a muscle cell model, C2C12 cells were induced to differentiate into muscle cells in 2% bovine fetal serum for 6 days. The C2C12 cells which differentiated into muscle cells were treated with each of the compounds in serum-free low glucose media, and then cultured with 1 μM of insulin for 24 hours. After cultivation, the cells were treated with 1 μCi 3H-deoxy-glucose and 10 μM deoxy-glucose at 37° C. for 15 minutes. After treatment, the media were removed, and the cells were washed twice with PBS. The washed cells were treated with 0.1 N NaOH and neutralized with 1N HCl. The amount of glucose absorbed into the cells was measured with a liquid scintillation counter. The effect of the compounds was determined by selecting a compound showing an absorption effect of at least 200%, dividing the absorption effect by the average percent of the control group, and then multiplying the divided value by […]. A higher measurement value means a stronger ability to reduce insulin resistance.

[2] = system: HepG2 cells; experiment: Measurement of triglyceride (Amplex red fluorescence); assay type: cell-based; settings: 24 h treatment, lower is better
Protocol: as §1
(§2) As a hepatic cell model, HepG2 cells were cultured in 1% serum-containing media for 24 hours, and then treated with each of the compounds for 24 hours. Then, the cells were disrupted with lysis buffer (0.1M potassium phosphate, pH 7.4, 0.05 M NaCl, 5 mM cholic acid, 0.1% Triton X-100). To the disrupted cells, the same volume of a reaction solution (0.76 U/ml glycerol kinase, 151333 U/ml peroxidase, 22.2 U/ml glycerol oxidizing agent, and 300 μM Amplex red as a fluorescent factor) was added and allowed to react at 37° C. for 30 minutes. After completion of the reaction, the cells were measured with a fluorometer at a wavelength of 560/590 nm (ex/em), thus quantifying the amount of triglyceride formed in the cells. A lower measurement value means an increased lipid production inhibitory ability.

[3] = system: HepG2 cells; experiment: Measurement of cholesterol synthesis ability (Amplex red fluorescence); assay type: cell-based; settings: HepG2 cells, 24 h treatment, lower is better
Excerpt: as §1
as §2, with “model, HepG2 cells were used to measure cholesterol synthesis inhibitory ability, which is the important function of AMPK. The hepatic cell model” for “model,”, “(0.1 M” for “(0.1M”, “(2” for “(0.76”, “cholesterol oxidizing agent, 2” for “glycerol kinase, 151333”, “0.2” for “22.2”, “cholesterol esterase,” for “glycerol oxidizing agent,”

[4] = system: HepG2 cells; experiment: Measurement of gluconeogenesis (14C-lactate); assay type: cell-based; settings: 24 h treatment, lower is better
Protocol: as §1
As a hepatic cell model, HepG2 cells were cultured in 10% serum-containing high glucose media, and then treated with each of the compounds for 24 hours. Then, the cells were treated with 0.5 uCi 14C-lactate and 10 mM L-lactate, and cultured for 4 hours. After cultivation, the media of the cells were removed, and the cells were washed with PBS, treated with 0.1N NaOH and left to stand at room temperature for 1 hour. Then, the cells were neutralized with 1N HCl, and the amount of glucose formed in the cells was measured with a liquid scintillation counter. […] A lower measurement value means a stronger blood glucose lowering activity.

[5] = Mus musculus, 250 uM, differentiated C2C12 muscle cells, with 1 μM insulin 24 h, higher is better, read-out: glucose absorption, % control
[6] = Homo sapiens, 250 uM, read-out: triglyceride synthesis ability, % control
[7] = Homo sapiens, 250 uM, read-out: cholesterol synthesis ability, % control
[8] = Homo sapiens, 500 uM, read-out: gluconeogenesis (glucose synthesis ability), % control
[9] = Mus musculus, differentiated C2C12 muscle cells, with 1 μM insulin 24 h, higher is better, read-out: glucose absorption, % control
[10] = Homo sapiens, 100 uM, read-out: triglyceride synthesis ability, % control
[11] = Homo sapiens, 100 uM, read-out: cholesterol synthesis ability, % control
[12] = Homo sapiens, read-out: gluconeogenesis (glucose synthesis ability), % control
[13] = Mus musculus, 100 uM, differentiated C2C12 muscle cells, with 1 μM insulin 24 h, higher is better, read-out: glucose absorption, % control
[14] = Homo sapiens, 100 uM, read-out: gluconeogenesis (glucose synthesis ability), % control

melting point: 193.7 to 219.6 °C
SMILES: CN(C)c1nc(N)nc(NCc2ccc3c(c2)OCO3)n1 (as salt: HCl) [Example 1, N2-(benzo[d][1,3]dioxol-5-ylmethyl)-N4,N4-dimethyl-1,3,5-triazine-2,4,6-triamine]

melting point: 138.2 to 141.6 °C
SMILES: CN(C)c1nc(N)nc(NCCN2CCOCC2)n1 [Example 3, N2,N2-dimethyl-N4-(2-morpholinoethyl)-1,3,5-triazine-2,4,6-triamine]
activity at 250 µM [1, 5]: 132%
activity at 250 µM [2, 6]: 98%
activity at 250 µM [3, 7]: 113%
activity at 500 µM [4, 8]: 67.6%

melting point: 151.6 to 152 °C
SMILES: CN(C)c1nc(N)nc(NCc2ccco2)n1 [Example 5, N2-(furan-2-ylmethyl)-N4,N4-dimethyl-1,3,5-triazine-2,4,6-triamine]
activity at 250 µM [1, 5]: 142%
activity at 250 µM [2, 6]: 90.2%
activity at 250 µM [3, 7]: 77.5%
activity at 500 µM [4, 8]: 68.5%

melting point: 140.8 to 142.9 °C
SMILES: Nc1nc(N)nc(NCc2ccc3c(c2)OCO3)n1 [Example 6, N2-(benzo[d][1,3]dioxol-5-ylmethyl)-1,3,5-triazine-2,4,6-triamine]
activity at 250 µM [1, 5]: 114%
activity at 250 µM [2, 6]: 108%
activity at 250 µM [3, 7]: 92.7%
activity at 500 µM [4, 8]: 82.3%

melting point: 116.6 to 117.2 °C
SMILES: CN(C)c1nc(N)nc(NCCN2CCCCC2)n1 [Example 7, N2,N2-dimethyl-N4-(2-(piperidin-1-yl)ethyl)-1,3,5-triazine-2,4,6-triamine]
activity at 200 µM [1, 9]: 131%
activity at 100 µM [2, 10]: 95.8%
activity at 100 µM [3, 11]: 97.4%
activity at 200 µM [4, 12]: 101%

melting point: 141.4 to 142 °C
SMILES: COc1ccc(CNc2nc(N)nc(N(C)C)n2)cc1O [Example 8, 5-((4-amino-6-(dimethylamino)-1,3,5-triazine-2-ylamino)methyl)-2-methoxyphenol]
activity at 200 µM [1, 9]: 126%
activity at 100 µM [2, 10]: 106%
activity at 100 µM [3, 11]: 59.1%
activity at 200 µM [4, 12]: 94.8%

melting point: 176.5 to 177 °C
SMILES: CN(C)c1nc(N)nc(NCCCN2CCCC2=O)n1 [Example 9, 1-(3-(4-amino-6-(dimethylamino)-1,3,5-triazin-2-ylamino)propyl)pyrrolidin-2-one]
activity at 200 µM [1, 9]: 120%
activity at 100 µM [2, 10]: 95.2%
activity at 100 µM [3, 11]: 93.5%
activity at 200 µM [4, 12]: 110%

melting point: 227 to 228 °C
SMILES: CN(C)c1nc(N)nc(N(C)C)n1 [Example 10, N2,N2,N4,N4-tetramethyl-1,3,5-triazine-2,4,6-triamine]
activity at 200 µM [1, 9]: 102%
activity at 100 µM [2, 10]: 97%
activity at 100 µM [3, 11]: 98.9%
activity at 200 µM [4, 12]: 87.2%

melting point: 271.8 to 272.8 °C
SMILES: CN(C)c1nc(N)nc(N)n1 [Example 11, N2,N2-dimethyl-1,3,5-triazine-2,4,6-triamine]
activity at 200 µM [1, 9]: 106%
activity at 100 µM [2, 10]: 97.6%
activity at 100 µM [3, 11]: 97.7%
activity at 200 µM [4, 12]: 70.4%

melting point: 253 to 263 °C
SMILES: CN(C)c1nc(N)nc(Nc2ccc(C(C)(C)C)cc2)n1 [Example 22, N2-(4-tert-butylphenyl)-N4,N4-dimethyl-1,3,5-triazine-2,4,6-triamine]
activity at 100 µM [2, 10]: 34.4%
activity at 100 µM [3, 11]: 53%

melting point: 132 to 168 °C
SMILES: CCCCCCc1ccc(Nc2nc(N)nc(N(C)C)n2)cc1 [Example 42, N2-(4-hexylphenyl)-N4,N4-dimethyl-1,3,5-triazine-2,4,6-triamine]
activity at 100 µM [2, 10]: 34.3%
activity at 100 µM [3, 11]: 39%

Further lines, the compound ahead of its results:

SMILES: CN(C)c1nc(N)nc(NCc2ccc3c(c2)OCO3)n1 [Example 1, N2-(benzo[d][1,3]dioxol-5-ylmethyl)-N4,N4-dimethyl-1,3,5-triazine-2,4,6-triamine]
activity at 250 µM [1, 5]: 133%
activity at 250 µM [2, 6]: 103%
activity at 250 µM [3, 7]: 81.1%
activity at 500 µM [4, 8]: 105%

SMILES: CN(C)c1nc(N)nc(Nc2cccc(Br)c2)n1 [Example 2, N2-(3-bromophenyl)-N4,N4-dimethyl-1,3,5-trizaine-2,4,6-triamine]
glucose absorption, % control ([1]; 100 uM, differentiated C2C12 muscle cells, with 1 μM insulin 24 h, higher is better): 35.23%
triglyceride synthesis ability, % control ([2]; 100 uM): 19.11%
cholesterol synthesis ability, % control ([3]; 100 uM): 23.15%
gluconeogenesis (glucose synthesis ability), % control ([4]; 100 uM): 51.89%

SMILES: CN(C)c1nc(N)nc(NCc2cccnc2)n1 [Example 4, N2,N2-dimethyl-N4-(2-pyridine-3-ylmethyl)-1,3,5-triazine-2,4,6-triamine]
glucose absorption, % control ([1]; 250 uM, differentiated C2C12 muscle cells, with 1 μM insulin 24 h, higher is better): 143.92%
triglyceride synthesis ability, % control ([2]; 250 uM): 99.48%
cholesterol synthesis ability, % control ([3]; 250 uM): 93.66%
gluconeogenesis (glucose synthesis ability), % control ([4]; 500 uM): 92.14%

SMILES: CN(C)c1nc(N)nc(Nc2ccc(Cl)c(Cl)c2)n1 [Example 17, N2-(3,4-dichlorophenyl)-N4,N4-dimethyl-1,3,5-triazine-2,4,6-triamine]
activity at 100 µM [1, 13]: 7.29%
activity at 100 µM [2, 10]: -12.1%
activity at 100 µM [3, 11]: 11.3%
activity at 100 µM [4, 14]: 15.2%

SMILES: CC(C)c1ccc(Nc2nc(N)nc(N(C)C)n2)cc1 [Example 28, N2-(4-isopropylphenyl)-N4,N4-dimethyl-1,3,5-triazine-2,4,6-triamine]
activity at 100 µM [1, 13]: 173%
activity at 100 µM [2, 10]: 43.2%
activity at 100 µM [3, 11]: 65.9%
activity at 100 µM [4, 14]: 45.4%

SMILES: CN(C)c1nc(N)nc(Nc2ccccc2F)n1 [Example 30, N2-(2-fluorophenyl)-N4,N4-dimethyl-1,3,5-triazine-2,4,6-triamine]
activity at 100 µM [1, 13]: 133%
activity at 100 µM [2, 10]: 81.1%
activity at 100 µM [3, 11]: 75.7%
activity at 100 µM [4, 14]: 85.5%

SMILES: CN(C)c1nc(N)nc(N2CCCC2)n1 [Example 35, N2,N2-dimethyl-6-(pyrrolidin-1-yl)-1,3,5-triazine-2,4-diamine]
activity at 100 µM [1, 13]: 285%
effect of reducing insulin resistance, times better than the control group ([1]; absorption effect divided by average percent of control group (metformin 2 mM), multiplied by 20): about 17 times
activity at 100 µM [2, 10]: 99.9%
activity at 100 µM [3, 11]: 69%
activity at 100 µM [4, 14]: 91.4%

SMILES: CCc1ccccc1Nc1nc(N)nc(N(C)C)n1 [Example 36, N2-(2-ethylphenyl)-N4,N4-dimethyl-1,3,5-triazine-2,4,6-triamine]
activity at 100 µM [1, 13]: 100%
activity at 100 µM [2, 10]: 75.1%
activity at 100 µM [3, 11]: 51%
activity at 100 µM [4, 14]: 42.1%

SMILES: CN(C)C(=N)N=C(N)N [Metformin, reference compound]
activity at 2000 µM ([1]; Mus musculus, 2 mM, differentiated C2C12 muscle cells, with 1 μM insulin 24 h, higher is better, read-out: glucose absorption, % control): 329%
activity at 2000 µM ([2]; Homo sapiens, 2 mM, read-out: triglyceride synthesis ability, % control): 70.6%
activity at 2000 µM ([3]; Homo sapiens, 2 mM, read-out: cholesterol synthesis ability, % control): 83.5%
activity at 2000 µM ([4]; Homo sapiens, 2 mM, read-out: gluconeogenesis (glucose synthesis ability), % control): 52.7%
